Measured values as given in the NIST ThermoML archive (doi:10.1016/j.jct.2017.03.016).

Tests used:
[1] = wn = mass fraction of the nth substance listed; settings: for surface tension liquid-gas: Maximal bubble pressure; for mass density: 100 kPa, Liquid, Vibrating tube method
[2] = refractive index (Na D-line) (dimensionless); wn = mass fraction of the nth substance listed; settings: 100 kPa, Liquid, Standard Abbe refractometry

CCn1cc[n+](CCOC)c1.N#C[N-]C#N [1-ethyl-3-(2-methoxyethyl)imidazolium dicyanamide] + O
Settings	mass density, [1] [kg/m3]	refractive index, [2]	surface tension liquid-gas, [1] [mN/m]
298.15 K, w2 = 0.00031	–	–	51.1
298.15 K, w2 = 0.00148	1113.35	1.5049	–
298.15 K, w2 = 0.00175	–	–	51.3
298.15 K, w2 = 0.00277	1113.18	1.5045	–
298.15 K, w2 = 0.00317	–	–	51.7
298.15 K, w2 = 0.00434	1112.96	1.5041	–
298.15 K, w2 = 0.00461	–	–	52
298.15 K, w2 = 0.0055	1112.77	1.5037	–
298.15 K, w2 = 0.00609	–	–	52.3
298.15 K, w2 = 0.00719	1112.46	1.5033	–
303.15 K, w2 = 0.00031	–	–	50.8
303.15 K, w2 = 0.00148	1109.96	1.5036	–
303.15 K, w2 = 0.00175	–	–	51.1
303.15 K, w2 = 0.00277	1109.78	1.5032	–
303.15 K, w2 = 0.00317	–	–	51.4
303.15 K, w2 = 0.00434	1109.57	1.5028	–
303.15 K, w2 = 0.00461	–	–	51.7
303.15 K, w2 = 0.0055	1109.37	1.5024	–
303.15 K, w2 = 0.00609	–	–	52
303.15 K, w2 = 0.00719	1109.06	1.5019	–
308.15 K, w2 = 0.00031	–	–	50.5
308.15 K, w2 = 0.00148	1106.58	1.5024	–
308.15 K, w2 = 0.00175	–	–	50.8
308.15 K, w2 = 0.00277	1106.41	1.5019	–
308.15 K, w2 = 0.00317	–	–	51.1
308.15 K, w2 = 0.00434	1106.19	1.5015	–
308.15 K, w2 = 0.00461	–	–	51.4
308.15 K, w2 = 0.0055	1106	1.501	–
308.15 K, w2 = 0.00609	–	–	51.7
308.15 K, w2 = 0.00719	1105.69	1.5006	–
313.15 K, w2 = 0.00031	–	–	50.2
313.15 K, w2 = 0.00148	1103.23	1.5012	–
313.15 K, w2 = 0.00175	–	–	50.5
313.15 K, w2 = 0.00277	1103.05	1.5007	–
313.15 K, w2 = 0.00317	–	–	50.8
313.15 K, w2 = 0.00434	1102.83	1.5002	–
313.15 K, w2 = 0.00461	–	–	51.1
313.15 K, w2 = 0.0055	1102.64	1.4996	–
313.15 K, w2 = 0.00609	–	–	51.4
313.15 K, w2 = 0.00719	1102.33	1.4992	–
318.15 K, w2 = 0.00031	–	–	49.9
318.15 K, w2 = 0.00148	1099.89	1.4996	–
318.15 K, w2 = 0.00175	–	–	50.2
318.15 K, w2 = 0.00277	1099.72	1.4992	–
318.15 K, w2 = 0.00317	–	–	50.5
318.15 K, w2 = 0.00434	1099.5	1.4987	–
318.15 K, w2 = 0.00461	–	–	50.8
318.15 K, w2 = 0.0055	1099.3	1.4982	–
318.15 K, w2 = 0.00609	–	–	51.1
318.15 K, w2 = 0.00719	1098.99	1.4979	–
323.15 K, w2 = 0.00031	–	–	49.6
323.15 K, w2 = 0.00148	1096.58	1.4984	–
323.15 K, w2 = 0.00175	–	–	49.9
323.15 K, w2 = 0.00277	1096.4	1.498	–
323.15 K, w2 = 0.00317	–	–	50.2
323.15 K, w2 = 0.00434	1096.18	1.4975	–
323.15 K, w2 = 0.00461	–	–	50.6
323.15 K, w2 = 0.0055	1095.98	1.497	–
323.15 K, w2 = 0.00609	–	–	50.8
323.15 K, w2 = 0.00719	1095.66	1.4965	–
328.15 K, w2 = 0.00031	–	–	49.4
328.15 K, w2 = 0.00148	1093.27	1.4971	–
328.15 K, w2 = 0.00175	–	–	49.7
328.15 K, w2 = 0.00277	1093.1	1.4966	–
328.15 K, w2 = 0.00317	–	–	50
328.15 K, w2 = 0.00434	1092.88	1.496	–
328.15 K, w2 = 0.00461	–	–	50.4
328.15 K, w2 = 0.0055	1092.68	1.4955	–
328.15 K, w2 = 0.00609	–	–	50.6
328.15 K, w2 = 0.00719	1092.36	1.4949	–
333.15 K, w2 = 0.00031	–	–	49.1
333.15 K, w2 = 0.00148	1090	1.4954	–
333.15 K, w2 = 0.00175	–	–	49.5
333.15 K, w2 = 0.00277	1089.82	1.495	–
333.15 K, w2 = 0.00317	–	–	49.8
333.15 K, w2 = 0.00434	1089.59	1.4945	–
333.15 K, w2 = 0.00461	–	–	50.1
333.15 K, w2 = 0.0055	1089.4	1.4939	–
333.15 K, w2 = 0.00609	–	–	50.4
333.15 K, w2 = 0.00719	1089.08	1.4934	–
338.15 K, w2 = 0.00031	–	–	48.8
338.15 K, w2 = 0.00148	1086.74	1.4941	–
338.15 K, w2 = 0.00175	–	–	49.2
338.15 K, w2 = 0.00277	1086.56	1.4935	–
338.15 K, w2 = 0.00317	–	–	49.5
338.15 K, w2 = 0.00434	1086.33	1.4929	–
338.15 K, w2 = 0.00461	–	–	49.8
338.15 K, w2 = 0.0055	1086.13	1.4923	–
338.15 K, w2 = 0.00609	–	–	50.1
338.15 K, w2 = 0.00719	1085.81	1.4919	–
